Reference: publication PMC9250534, “Synthesis and direct assay of large macrocycle diversities by combinatorial late-stage modification at picomole scale” (Nature Communications, 2022)
Numbered stars: 1 amine (or outer) side, 2 acyl side, 3 side chain; on linkers, the order of the positions; unused ones are H or OH. Bridge positions count the residues as written; N and C are the ends. Square brackets hold non-standard residues; d marks the D form. Peptide text beside a SMILES is read from it. * marks the point of attachment. Isoorotoyl = O=C(c1c[nH]c(=O)[nH]c1=O)*; Nicotinoyl(6-OMe) = COc1ccc(C(=O)*)cn1; 2Thenoyl(5-Cl) = O=C(c1ccc(Cl)s1)*; Phenoxyacetyl = O=C(COc1ccccc1)*; Cysteamide = C(CS[*:3])N[*:1]; X3 = O=C(Cc1c[nH]c2ccccc12)*; 4Amb = NCc1ccc(C(=O)O)cc1; Isovaleryl = CC(C)CC(=O)*; Orn = NCCC[C@H](N)C(=O)O; 2Furoyl = O=C(c1ccco1)*; Api = NC1(C(=O)O)CCNCC1; Bz = O=C(c1ccccc1)*; Mpa = O=C(O)CCS

Target: T1, thrombin (Homo sapiens, UniProt P00734)
T1 construct: consists of two polypeptide chains of 36 (light chain) and 259 amino acid
Experiment: Thrombin inhibition screen of crude macrocycle reactions (residual thrombin activity, fluorogenic substrate Z-Gly-Gly-Arg-AMC)
Type: biochemical
Details: 10 µM macrocycle concentration; for % thrombin activity, Original screen / % thrombin activity, Repeat screen: macrocycles containing acid 14, crude reaction; for % thrombin activity, Repeat screen: replicate reaction and screen; for percent residual thrombin activity: crude reactions, Library 1a-l, scaffold AA1-AA2-AA3 combined with 1-16 or '-'
Procedure, shortened: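 Each crude macrocycle (10 μM) was preincubated 10 min at room temperature with thrombin (2 nM final) in Tris-Cl pH 7.4 containing NaCl, MgCl2, CaCl2, 0.1% BSA, 0.01% Triton X-100 and 0.6% DMSO. Z-Gly-Gly-Arg-AMC (50 μM final) was then added. Inhibition came from fluorescence slopes relative to DMSO-only controls.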

| SMILES | percent residual thrombin activity [%] | also measured |
| --- | --- | --- |
| O=C1CCSSCCNC(=O)[C@H](Cc2ccccc2)NC(=O)CCNC(=O)[C@H](CNC(=O)c2ccc(Cl)s2)N1 [X D3 B2 F] |  | % thrombin activity, Original screen: 56.1%; % thrombin activity, Repeat screen: 56.2% |
| CC(C)[C@@H]1NC(=O)[C@H]2CCCN(C2)C(=O)[C@H](CCCNC(=O)COc2ccccc2)NC(=O)CCSSCCNC1=O [D2-B4-V/13] | 112.633 |  |
| CC[C@H](C)[C@@H]1NC(=O)CCSSCCNC(=O)[C@H](CCCCN)NC(=O)c2cccc(c2)CNC1=O [I-B5-D1/-] | 103.325 |  |
| CC[C@H](C)[C@@H]1NC(=O)CCNC(=O)[C@H](CCCNC(=O)c2ccc(Cl)s2)NC(=O)CCSSCCNC1=O [X D2 B2 I] |  | % thrombin activity, Original screen: 101.0%; % thrombin activity, Repeat screen: 92.2% |
| O=C1CCSSCCNC(=O)[C@H](CNC(=O)c2ccc(Cl)s2)NC(=O)[C@H](Cc2ccc(O)cc2)NC(=O)C2(CC2)CN1 [X B6 Y D3] |  | % thrombin activity, Original screen: 68.6%; % thrombin activity, Repeat screen: 63.8% |
| O=C1CCSSCCNC(=O)c2ccc(cc2)CNC(=O)[C@H](Cc2c[nH]c3ccccc23)NC(=O)[C@H](CCCNC(=O)c2c[nH]c(=O)cn2)N1 [D2-W-B3/9] | 111.429 |  |
| O=C(COc1ccccc1)NCCCC[C@@H]1NC(=O)[C@H]2CCCN(C2)C(=O)CCSSCCNC(=O)[C@H](CO)NC1=O [B4-D1-S/13] | 103.519 |  |
| O=C(COc1ccccc1)NCCC[C@@H]1NC(=O)CCSSCCNC(=O)[C@H](Cc2cnc[nH]2)NC(=O)c2cccc(c2)CNC1=O [D2-B5-H/13] | 105.187 |  |
| O=C1CCSSCCNC(=O)[C@H](CCCCNC(=O)c2ccccc2)NC(=O)[C@@H](Cc2ccc(O)cc2)NC(=O)c2ccc(cc2)CN1 [B3-y-D1/1] ([Mpa][4Amb][dY]K(Bz)-Cysteamide; disulfide 1-C) | 107.146 |  |
| O=C(Cc1c[nH]c2ccccc12)NCCCC[C@@H]1NC(=O)[C@@H](Cc2ccc(O)cc2)NC(=O)CCSSCCNC(=O)[C@@H]2CCCN2C1=O [y-D1-B1/12] ([Mpa][dY]K(X3)P-Cysteamide; disulfide 1-C) | 104.378 |  |
| NC(=O)CC[C@@H]1NC(=O)C2(CCN(C(=O)c3ccc(Cl)s3)CC2)NC(=O)[C@@H]2CCCN2C(=O)CCSSCCNC1=O [X B1 D6 Q] ([Mpa]P[Api](2Thenoyl(5-Cl))Q-Cysteamide; disulfide 1-C) |  | % thrombin activity, Original screen: 91.7%; % thrombin activity, Repeat screen: 93.5% |
| O=C1CCSSCCNC(=O)C(CNC(=O)c2ccc(Cl)s2)NC(=O)C(Cc2ccccc2)NC(=O)c2ccc(cc2)CN1 (stereo not drawn) [X B3 F D3] |  | % thrombin activity, Original screen: 62.7%; % thrombin activity, Repeat screen: 59.9% |
| O=C1CCSSCCNC(=O)[C@H](Cc2cnc[nH]2)NC(=O)c2cccc(c2)CNC(=O)[C@H](CCCNC(=O)c2ccc(Cl)s2)N1 [X D2 B5 H] |  | % thrombin activity, Original screen: 93.0%; % thrombin activity, Repeat screen: 94.7% |
| O=C1CCNC(=O)[C@H](Cc2c[nH]cn2)NC(=O)CCSSCCNC(=O)[C@H](CCCNC(=O)c2ccco2)N1 [H-B2-D2/16] | 110.75 |  |
| COc1ccc(C(=O)NCCCC[C@@H]2NC(=O)[C@H](CO)NC(=O)c3cccc(c3)CNC(=O)CCSSCCNC2=O)cn1 [B5-S-D1/10] | 101.444 |  |
| C[C@H]1NC(=O)CCSSCCNC(=O)[C@H](CCCCNC(=O)c2ccco2)NC(=O)[C@@H]2CCCN2C1=O [a-B1-D1/16] ([Mpa][dA]PK(2Furoyl)-Cysteamide; disulfide 1-C) | 111.353 |  |
| O=C1CCSSCCNC(=O)C2(CC2)CNC(=O)[C@H](CO)NC(=O)[C@H](CCCCNC(=O)c2c[nH]c(=O)[nH]c2=O)N1 [D1-S-B6/11] | 103.758 |  |
| NC(=O)CC[C@@H]1NC(=O)[C@@H]2CCCN2C(=O)CCSSCCNC(=O)[C@H](CCCNC(=O)Cc2c[nH]c3ccccc23)NC1=O [B1-Q-D2/12] ([Mpa]PQ[Orn](X3)-Cysteamide; disulfide 1-C) | 104.653 |  |
| CC(C)[C@@H]1NC(=O)CCSSCCNC(=O)[C@@H]2CCCN2C(=O)[C@H](CCCCNC(=O)COc2ccccc2)NC1=O [v-D1-B1/13] ([Mpa]VK(Phenoxyacetyl)P-Cysteamide; disulfide 1-C) | 104.766 |  |
| O=C1CCSSCCNC(=O)[C@@H](Cc2ccccc2)NC(=O)[C@H]2CCCN(C2)C(=O)[C@H](CCCNC(=O)c2ccc(Cl)s2)N1 [D2-B4-f/14] | 82.899 |  |
| O=C1CCNC(=O)[C@H](CO)NC(=O)[C@H](CCCNC(=O)c2ccc(Cl)s2)NC(=O)CCSSCCN1 [D2-S-B2/14] | 105.361 |  |
| NC(=O)CC[C@@H]1NC(=O)CCSSCCNC(=O)[C@H]2CCCN(C2)C(=O)[C@H](CCCCNC(=O)c2ccc(Cl)s2)NC1=O [Q-D1-B4/14] | 109.426 |  |
| O=C1CCSSCCNC(=O)[C@H]2CCCN(C2)C(=O)C2(CCN(C(=O)c3ccc(Cl)s3)CC2)NC(=O)[C@@H](CO)N1 [X s D6 B4] |  | % thrombin activity, Original screen: 93.8%; % thrombin activity, Repeat screen: 97.7% |

| SMILES | percent residual thrombin activity [%] | also measured |
| --- | --- | --- |
| Cc1cc(C(=O)NCCCC[C@@H]2NC(=O)CCNC(=O)[C@@H](CO)NC(=O)CCSSCCNC2=O)no1 [s-B2-D1/3] | 111.495 |  |
| O=C1CCSSCCNC(=O)[C@H](CCCCNC(=O)c2c[nH]c(=O)[nH]c2=O)NC(=O)[C@H]2CCCN(C2)C(=O)[C@@H](CO)N1 [s-B4-D1/11] | 112.975 |  |
| O=C1CCSSCCNC(=O)[C@@H]2CCCN2C(=O)[C@H](CCCCNC(=O)c2ccco2)NC(=O)[C@@H](Cc2ccc(O)cc2)N1 [y-D1-B1/16] ([Mpa][dY]K(2Furoyl)P-Cysteamide; disulfide 1-C) | 104.272 |  |
| COc1ccc(C(=O)NCCCC[C@@H]2NC(=O)[C@@H]3CCCN3C(=O)CCSSCCNC(=O)[C@@H](Cc3ccc(O)cc3)NC2=O)cn1 [B1-D1-y/10] ([Mpa]PK(Nicotinoyl(6-OMe))[dY]-Cysteamide; disulfide 1-C) | 109.958 |  |
| CC[C@H](C)[C@@H]1NC(=O)[C@H](CCCNC(=O)c2ccc(Cl)s2)NC(=O)CCSSCCNC(=O)CCNC1=O [X D2 I B2] |  | % thrombin activity, Original screen: 94.1%; % thrombin activity, Repeat screen: 96.8% |
| O=C(COc1ccccc1)NCCC[C@@H]1NC(=O)CCSSCCNC(=O)c2ccc(cc2)CNC(=O)[C@H](Cc2c[nH]c3ccccc23)NC1=O [D2-W-B3/13] | 117.613 |  |
| O=C1CCSSCCNC(=O)[C@H](CO)NC(=O)c2ccc(cc2)CNC(=O)[C@H](CCCCNC(=O)c2c[nH]c(=O)[nH]c2=O)N1 [D1-B3-S/11] | 105.178 |  |
| O=C1CCSSCCNC(=O)C2(CC2)CNC(=O)[C@H](CO)NC(=O)[C@H](CCCCNC(=O)c2ccc(Cl)s2)N1 [X D1 S B6] |  | % thrombin activity, Original screen: 97.6%; % thrombin activity, Repeat screen: 98.2% |
| CC(C)[C@H]1NC(=O)[C@H](CCCCN)NC(=O)[C@@H]2CCCN2C(=O)CCSSCCNC1=O [B1-D1-v/-] ([Mpa]PK[dV]-Cysteamide; disulfide 1-C) | 114.269 |  |
| O=C1CCSSCCNC(=O)[C@H](CO)NC(=O)[C@H](CNC(=O)c2ccc(Cl)s2)NC(=O)CCN1 [X B2 D3 S] |  | % thrombin activity, Original screen: 83.8%; % thrombin activity, Original screen (listed as X B2 D3 s): 102.4%; % thrombin activity, Repeat screen: 76.6%; % thrombin activity, Repeat screen (listed as X B2 D3 s): 99.4% |
| NCCCC[C@@H]1NC(=O)c2cccc(c2)CNC(=O)[C@H](Cc2cnc[nH]2)NC(=O)CCSSCCNC1=O [H-B5-D1/-] | 101.253 |  |
| O=C(NCCC[C@@H]1NC(=O)[C@H](CO)NC(=O)[C@@H]2CCCN2C(=O)CCSSCCNC1=O)c1ccc(Cl)s1 [B1-s-D2/14] ([Mpa]PS[Orn](2Thenoyl(5-Cl))-Cysteamide; disulfide 1-C) | 95.3682 |  |
| O=C(COc1ccccc1)NCCCC[C@@H]1NC(=O)[C@@H](Cc2c[nH]c3ccccc23)NC(=O)[C@H]2CCCN(C2)C(=O)CCSSCCNC1=O [B4-w-D1/13] | 115.4 |  |
| CC(C)[C@@H]1NC(=O)[C@H]2CCCN(C2)C(=O)[C@H](CCCNC(=O)c2ccc(Cl)s2)NC(=O)CCSSCCNC1=O [D2-B4-V/14] | 102.581 |  |
| CC(C)C[C@@H]1NC(=O)CCSSCCNC(=O)[C@H](CCCNC(=O)c2ccc(Cl)s2)NC(=O)[C@H]2CCCN(C2)C1=O [L-B4-D2/14] | 97.6394 |  |
| CC(C)CC(=O)NCCC[C@@H]1NC(=O)[C@H](CO)NC(=O)[C@@H]2CCCN2C(=O)CCSSCCNC1=O [B1-s-D2/8] ([Mpa]PS[Orn](Isovaleryl)-Cysteamide; disulfide 1-C) | 104.868 |  |
| O=C1CCSSCCNC(=O)[C@H](CCCCNC(=O)c2c[nH]c(=O)[nH]c2=O)NC(=O)c2cccc(c2)CNC(=O)[C@H](CO)N1 [S-B5-D1/11] | 117.639 |  |
| CC(C)CC(=O)NCCCC[C@@H]1NC(=O)CCSSCCNC(=O)[C@H](CO)NC(=O)c2ccc(cc2)CNC1=O [D1-B3-S/8] | 103.332 |  |
| NC(=O)CC[C@@H]1NC(=O)CCSSCCNC(=O)[C@H]2CCCN(C2)C(=O)[C@H](CCCCNC(=O)c2c[nH]c(=O)[nH]c2=O)NC1=O [Q-D1-B4/11] | 113.771 |  |
| C[C@H]1NC(=O)CCSSCCNC(=O)c2cccc(c2)CNC(=O)[C@H](CCCCNC(=O)COc2ccccc2)NC1=O [a-D1-B5/13] | 105.866 |  |
| CC[C@H](C)[C@@H]1NC(=O)[C@H](CCCNC(=O)c2cc(C)on2)NC(=O)c2cccc(c2)CNC(=O)CCSSCCNC1=O [B5-D2-I/3] | 102.465 |  |
| NC(=O)CC[C@@H]1NC(=O)[C@@H]2CCCN2C(=O)CCSSCCNC(=O)[C@H](CCCNC(=O)c2c[nH]c(=O)[nH]c2=O)NC1=O [B1-Q-D2/11] ([Mpa]PQ[Orn](Isoorotoyl)-Cysteamide; disulfide 1-C) | 110.064 |  |
